The values that follow come from patent publication US20220403345A1, “A MAMMALIAN-AVIAN CHIMERIC MODEL SYSTEM” (INNOVO MIMETICS LIMITED, priority 2019, published 2022).

The test system of this assay is PEA2 ovarian cancer cell line. The assay can be described thus: PEA2 matrix pellet tumor on egg CAM treated with Carboplatin. Type of assay: in vivo. As to conditions: 400 μg Carboplatin intravenous injection at E13; tumor excised from E16 egg. The method, then: FIGS. 1A-1C are micrographs showing bright field images of a Matrigel® pellet formed comprising 3×10^5 cells of PEA2 ovarian cancer cell line. (1A) is an image of a liquid Matrigel® placed on ParafilmTM at 37° C. for 30 minutes and allowed to solidify before being placed on the CAM of an embryonic day 9 egg (E9; pellet circumference=3-5 mm). (1B) is an image of a tumor excised from an E16 egg following engraftment with a MATRIGEL® pellet, as shown in […]). […] (1C) is images of a low-passage ovarian cancer cell line derived from ascites liquid drained from a patient which was engrafted, and the resulting tumor was excised, fixed embedded, sectioned (7 μm) and stained with either (left) hematoxylin and eosin or (right) for expression of CD44 by immunohistochemistry (tumor diameter is 0.4 cm). The ovarian cancer cell line PEA2 was embedded in a matrix pellet by resuspending 3×10^5 PEA2 cells in 15 μl Matrigel®, on ice, and pipetting onto a solid surface (Parafilm) at 37° C. for 30 minutes (FIG. 1A). The Matrigel® pellet that formed was then placed on the CAM of an E9 egg, close to an underlying CAM blood vessel junction. It was not necessary to wound the CAM surface blood vessels in order to achieve a high rate of engraftment. […] Tissue sections (7 μm thick) were cut and analyzed by histology and immunohistochemistry for cell viability, proliferation and death (FIG. 1C).

On to `N.N.O=C([O-])C1(C(=O)[O-])CCC1.[Pt+2]` [Carboplatin], for which the “tumor size compared to the original MATRIGEL pellet” value is listed as “shrunk in size”.
